Laboratory results: patent US10781184B2, “Substituted benzazinones as antibacterial compounds” (GlaxoSmithKline Intellectual Property Development Limited, priority 2015, dated 2020)
Converted amounts (≈) assume the structure as drawn.

Columns and labels:
Assay in all cases: Minimum Inhibitory Concentration Assay (broth microdilution, CLSI)
Type in all cases: cell-based
K. pneumoniae 1161486 = conditions: Klebsiella pneumoniae; strain 1161486, broth microdilution; read-out: K. pneumoniae 1161486 MIC
Method in brief: (§1)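 CLSI broth microdilution for aerobic bacteria; compounds serially diluted in the recommended broth over a final range of 0.125–128 mcg/mL, final DMSO below 1%. MIC read as the lowest concentration inhibiting visible growth.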

P. aeruginosa PA01 = conditions: Pseudomonas aeruginosa; strain PA01, broth microdilution; read-out: P. aeruginosa PA01 MIC
Method in brief: as §1

E. coli 7623 = conditions: Escherichia coli; strain 7623, broth microdilution; read-out: E. coli 7623 MIC
Method in brief: as §1

Row | MIC (K. pneumoniae 1161486) | MIC (P. aeruginosa PA01) | MIC (E. coli 7623) | Structure (SMILES)
1 | 0.25 µg/mL (≈ 0.548 µM) | 2 µg/mL (≈ 4.38 µM) | 0.063 µg/mL (≈ 0.138 µM) | C[C@@](CCn1ccc2cc(-c3ccc4c(c3)COC4)ccc2c1=O)(C(=O)NO)S(C)(=O)=O [Example 57, (2R)-4-[6-(1,3-dihydro-2-benzofuran-5-yl)-1-oxo-1,2-dihydroisoquinolin-2-yl]-N-hydroxy-2-methanesulfonyl-2-methylbutanamide]
2 | 1 µg/mL (≈ 2.3 µM) | 4 µg/mL (≈ 9.18 µM) | 0.063 µg/mL (≈ 0.145 µM) | Cc1cnc(-c2ccc3c(=O)n(CC[C@](C)(C(=O)NO)S(C)(=O)=O)ccc3c2)s1 [Example 58, (2R)—N-hydroxy-2-methanesulfonyl-2-methyl-4-[6-(5-methyl-1,3-thiazol-2-yl)-1-oxo-1,2-dihydroisoquinolin-2-yl]butanamide]
3 | 0.125 µg/mL (≈ 0.273 µM) | 0.5 µg/mL (≈ 1.09 µM) | 0.063 µg/mL (≈ 0.138 µM) | C[C@@](CCn1ccc2cc(-c3ccc(C#N)cc3F)ccc2c1=O)(C(=O)NO)S(C)(=O)=O [Example 59, (2R)-4-[6-(4-cyano-2-fluorophenyl)-1-oxo-1,2-dihydroisoquinolin-2-yl]-N-hydroxy-2-methanesulfonyl-2-methylbutanamide]
4 | 0.5 µg/mL | 0.5 µg/mL | < 0.03 µg/mL | COc1ccc(-c2ccc3c(=O)n(CC[C@](C)(C(=O)NO)S(C)(=O)=O)ccc3c2)cn1.Cl [Example 60, (2R)—N-hydroxy-2-methanesulfonyl-4-[6-(6-methoxypyridin-3-yl)-1-oxo-1,2-dihydroisoquinolin-2-yl]-2-methylbutanamide]
5 | 1 µg/mL (≈ 2.19 µM) | > 32 µg/mL | < 0.03 µg/mL | CN(C)c1ccc(-c2ccc3c(=O)n(CC[C@](C)(C(=O)NO)S(C)(=O)=O)ccc3c2)cc1 [Example 61, (2R)-4-{6-[4-(dimethylamino)phenyl]-1-oxo-1,2-dihydroisoquinolin-2-yl}-N-hydroxy-2-methanesulfonyl-2-methylbutanamide]
6 | 0.5 µg/mL (≈ 1.09 µM) | 8 µg/mL (≈ 17.4 µM) | 0.125 µg/mL (≈ 0.273 µM) | CN(C)c1ccc(-c2ccc3c(=O)n(CC[C@](C)(C(=O)NO)S(C)(=O)=O)ccc3c2)cn1 [Example 62, (2R)-4-{6-[6-(dimethylamino)pyridin-3-yl]-1-oxo-1,2-dihydroisoquinolin-2-yl}-N-hydroxy-2-methanesulfonyl-2-methylbutanamide]
7 | 1 µg/mL (≈ 2.18 µM) | 4 µg/mL (≈ 8.7 µM) | 0.125 µg/mL (≈ 0.272 µM) | CN(C)c1ncc(-c2ccc3c(=O)n(CC[C@](C)(C(=O)NO)S(C)(=O)=O)ccc3c2)cn1 [Example 63, (2R)-4-{6-[2-(dimethylamino)pyrimidin-5-yl]-1-oxo-1,2-dihydroisoquinolin-2-yl}-N-hydroxy-2-methanesulfonyl-2-methylbutanamide]
8 | 0.5 µg/mL (≈ 1.02 µM) | 4 µg/mL (≈ 8.17 µM) | 0.25 µg/mL (≈ 0.511 µM) | CN(C)Cc1ccc(-c2ccc3c(=O)n(CC[C@](C)(C(=O)NO)S(C)(=O)=O)ccc3c2)c(F)c1 [Example 65, (2R)-4-(6-{4-[(dimethylamino)methyl]-2-fluorophenyl}-1-oxo-1,2-dihydroisoquinolin-2-yl)-N-hydroxy-2-methanesulfonyl-2-methylbutanamide]
9 | 0.125 µg/mL (≈ 0.234 µM) | 1 µg/mL (≈ 1.87 µM) | 0.063 µg/mL (≈ 0.118 µM) | COCCN(C)Cc1ccc(-c2ccc3c(=O)n(CC[C@](C)(C(=O)NO)S(C)(=O)=O)ccc3c2)c(F)c1 [Example 66, (2R)-4-[6-(2-fluoro-4-{[(2-methoxyethyl)(methyl)amino]methyl}phenyl)-1-oxo-1,2-dihydroisoquinolin-2-yl]-N-hydroxy-2-methanesulfonyl-2-methylbutanamide]
10 | 1 µg/mL (≈ 1.92 µM) | 1 µg/mL (≈ 1.92 µM) | 0.125 µg/mL (≈ 0.241 µM) | COCCNCc1ccc(-c2ccc3c(=O)n(CC[C@](C)(C(=O)NO)S(C)(=O)=O)ccc3c2)c(F)c1 [Example 67, (2R)-4-[6-(2-fluoro-4-{[(2-methoxyethyl)amino]methyl}phenyl)-1-oxo-1,2-dihydroisoquinolin-2-yl]-N-hydroxy-2-methanesulfonyl-2-methylbutanamide]
11 | 0.25 µg/mL | 2 µg/mL | 0.125 µg/mL | COCCCN(C)Cc1ccc(-c2ccc3c(=O)n(CC[C@](C)(C(=O)NO)S(C)(=O)=O)ccc3c2)c(F)c1.Cl [Example 70, (2R)-4-[6-(2-fluoro-4-{[(3-methoxypropyl)(methyl)amino]methyl}phenyl)-1-oxo-1,2-dihydroisoquinolin-2-yl]-N-hydroxy-2-methanesulfonyl-2-methylbutanamide]
12 | 0.5 µg/mL (≈ 0.93 µM) | 0.5 µg/mL (≈ 0.93 µM) | 0.063 µg/mL (≈ 0.117 µM) | COCCNCc1ccc(-c2ccc3c(=O)n(CC[C@](C)(C(=O)NO)S(C)(=O)=O)ccc3c2)c(F)c1F [Example 71, (R)-4-(6-(2,3-difluoro-4-(((2-methoxyethyl)amino)methyl)phenyl)-1-oxoisoquinolin-2(1H)-yl)-N-hydroxy-2-methyl-2-(methylsulfonyl)butanamide]
13 | 0.5 µg/mL | 2 µg/mL | 0.25 µg/mL | CC(C)OCCNCc1ccc(-c2ccc3c(=O)n(CC[C@](C)(C(=O)NO)S(C)(=O)=O)ccc3c2)c(F)c1.Cl [Example 73, (2R)-4-{6-[2-fluoro-4-({[2-(propan-2-yloxy)ethyl]amino}methyl)phenyl]-1-oxo-1,2-dihydroisoquinolin-2-yl}-N-hydroxy-2-methanesulfonyl-2-methylbutanamide]
14 | 0.5 µg/mL | 1 µg/mL | 0.25 µg/mL | CN(CCO)Cc1ccc(-c2ccc3c(=O)n(CC[C@](C)(C(=O)NO)S(C)(=O)=O)ccc3c2)c(F)c1.O=C(O)C(F)(F)F [Example 74, (2R)-4-[6-(2-fluoro-4-{[(2-hydroxyethyl)(methyl)amino]methyl}phenyl)-1-oxo-1,2-dihydroisoquinolin-2-yl]-N-hydroxy-2-methanesulfonyl-2-methylbutanamide]
15 | 0.125 µg/mL (≈ 0.249 µM) | 0.5 µg/mL (≈ 0.997 µM) | < 0.03 µg/mL | C[C@@](CCn1ccc2cc(-c3ccc(CNC4CC4)cc3F)ccc2c1=O)(C(=O)NO)S(C)(=O)=O [Example 76, (2R)-4-(6-{4-[(cyclopropylamino)methyl]-2-fluorophenyl}-1-oxo-1,2-dihydroisoquinolin-2-yl)-N-hydroxy-2-methanesulfonyl-2-methylbutanamide]
16 | 0.25 µg/mL (≈ 0.499 µM) | 2 µg/mL (≈ 4 µM) | 0.125 µg/mL (≈ 0.25 µM) | CN(C)N(C)Cc1ccc(-c2ccc3c(=O)n(CC[C@](C)(C(=O)NO)S(C)(=O)=O)ccc3c2)cc1 [Example 77, (2R)—N-hydroxy-2-methanesulfonyl-2-methyl-4-(1-oxo-6-{4-[(1,2,2-trimethylhydrazin-1-yl)methyl]phenyl}-1,2-dihydroisoquinolin-2-yl)butanamide]
17 | 0.125 µg/mL (≈ 0.264 µM) | 4 µg/mL (≈ 8.45 µM) | 0.063 µg/mL (≈ 0.133 µM) | CONCc1ccc(-c2ccc3c(=O)n(CC[C@](C)(C(=O)NO)S(C)(=O)=O)ccc3c2)cc1 [Example 78, (2R)—N-hydroxy-2-methanesulfonyl-4-(6-{4-[(methoxyamino)methyl]phenyl}-1-oxo-1,2-dihydroisoquinolin-2-yl)-2-methylbutanamide]
18 | 0.5 µg/mL (≈ 1.03 µM) | 8 µg/mL (≈ 16.4 µM) | 0.125 µg/mL (≈ 0.257 µM) | CN(C)NCc1ccc(-c2ccc3c(=O)n(CC[C@](C)(C(=O)NO)S(C)(=O)=O)ccc3c2)cc1 [Example 79, (2R)-4-(6-{4-[(2,2-dimethylhydrazin-1-yl)methyl]phenyl}-1-oxo-1,2-dihydroisoquinolin-2-yl)-N-hydroxy-2-methanesulfonyl-2-methylbutanamide]
19 | 0.25 µg/mL (≈ 0.474 µM) | 1 µg/mL (≈ 1.9 µM) | 0.063 µg/mL (≈ 0.119 µM) | C[C@@](CCn1ccc2cc(-c3ccc(CCN4CCOCC4)cc3)ccc2c1=O)(C(=O)NO)S(C)(=O)=O [Example 80, (2R)—N-hydroxy-2-methanesulfonyl-2-methyl-4-(6-{4-[2-(morpholin-4-yl)ethyl]phenyl}-1-oxo-1,2-dihdroisoquinolin-2-yl)butanamide]
20 | 0.5 µg/mL (≈ 0.977 µM) | 1 µg/mL (≈ 1.95 µM) | 0.25 µg/mL (≈ 0.489 µM) | C[C@@](CCn1ccc2cc(-c3ccc(CN4CCCC4=O)cc3)ccc2c1=O)(C(=O)NO)S(C)(=O)=O [Example 81, (2R)—N-hydroxy-2-methanesulfonyl-2-methyl-4-(1-oxo-6-{4-[(2-oxopyrrolidin-1-yl)methyl]phenyl}-1,2-dihydroisoquinolin-2-yl)butanamide]
21 | 0.25 µg/mL | 4 µg/mL | 0.25 µg/mL | CN(CCOc1ccc(-c2ccc3c(=O)n(CC[C@](C)(C(=O)NO)S(C)(=O)=O)ccc3c2)cn1)C1CC1.O=C(O)C(F)(F)F [Example 82, (2R)-4-[6-(6-{2-[cyclopropyl(methyl)amino]ethoxy}pyridin-3-yl)-1-oxo-1,2-dihydroisoquinolin-2-yl]-N-hydroxy-2-methanesulfonyl-2-methylbutanamide]
22 | 0.25 µg/mL (≈ 0.541 µM) | 8 µg/mL (≈ 17.3 µM) | < 0.03 µg/mL | COc1ccc(-c2ccc3c(=O)n(CC[C@](C)(C(=O)NO)S(C)(=O)=O)cc(F)c3c2)cc1 [Example 83, (2R)-4-[4-fluoro-6-(4-methoxyphenyl)-1-oxo-1,2-dihydroisoquinolin-2-yl]-N-hydroxy-2-methanesulfonyl-2-methylbutanamide]
23 | 0.25 µg/mL (≈ 0.578 µM) | 4 µg/mL (≈ 9.25 µM) | 0.5 µg/mL (≈ 1.16 µM) | C[C@@](CCn1cc(F)c2cc(-c3ccccc3)ccc2c1=O)(C(=O)NO)S(C)(=O)=O [Example 84, (2R)-4-(4-fluoro-1-oxo-6-phenyl-1,2-dihydroisoquinolin-2-yl)-N-hydroxy-2-methanesulfonyl-2-methylbutanamide]
24 | 1 µg/mL (≈ 2.04 µM) | 4 µg/mL (≈ 8.17 µM) | 0.5 µg/mL (≈ 1.02 µM) | CN(C)Cc1ccc(-c2ccc3c(=O)n(CC[C@](C)(C(=O)NO)S(C)(=O)=O)cc(F)c3c2)cc1 [Example 85, (2R)-4-(6-{4-[(dimethylamino)methyl]phenyl}-4-fluoro-1-oxo-1,2-dihydroisoquinolin-2-yl)-N-hydroxy-2-methanesulfonyl-2-methylbutanamide]
25 | 0.25 µg/mL (≈ 0.524 µM) | 16 µg/mL (≈ 33.5 µM) | < 0.03 µg/mL | CCOc1ccc(-c2ccc3c(=O)n(CC[C@](C)(C(=O)NO)S(C)(=O)=O)cc(F)c3c2)cn1 [Example 86, (2R)-4-[6-(6-ethoxypyridin-3-yl)-4-fluoro-1-oxo-1,2-dihydroisoquinolin-2-yl]-N-hydroxy-2-methanesulfonyl-2-methylbutanamide]
